Laboratory results published in ChEMBL document CHEMBL3727358, “Inhibitors of inducible form of 6-phosphofructose-2-kinase” (2014).

Columns and labels:
[1] = target: T1, 6-phosphofructo-2-kinase/fructose-2,6-bisphosphatase 3 (Homo sapiens, UniProt Q16875); assay: Inhibition of iPFK2 (unknown origin) assessed as reduction in enzyme-mediated fructose-6-phosphate phosphorylation by measuring NADH absorbance pre-incubated for 10 mins before ATP/substrate addition followed by incubation for 1 hr by UV-Visible spectrometry based iPFK-2/PPI-PFK coupled enzyme assay
[2] = target: T1, 6-phosphofructo-2-kinase/fructose-2,6-bisphosphatase 3; assay: Inhibition of iPFK2 (unknown origin) assessed as reduction in enzyme-mediated fructose-6-phosphate phosphorylation by measuring ATP consumption incubated for 3 hrs by luciferase-luciferin-coupled chemiluminescence assay

T1 sequence (Q16875 whole entry): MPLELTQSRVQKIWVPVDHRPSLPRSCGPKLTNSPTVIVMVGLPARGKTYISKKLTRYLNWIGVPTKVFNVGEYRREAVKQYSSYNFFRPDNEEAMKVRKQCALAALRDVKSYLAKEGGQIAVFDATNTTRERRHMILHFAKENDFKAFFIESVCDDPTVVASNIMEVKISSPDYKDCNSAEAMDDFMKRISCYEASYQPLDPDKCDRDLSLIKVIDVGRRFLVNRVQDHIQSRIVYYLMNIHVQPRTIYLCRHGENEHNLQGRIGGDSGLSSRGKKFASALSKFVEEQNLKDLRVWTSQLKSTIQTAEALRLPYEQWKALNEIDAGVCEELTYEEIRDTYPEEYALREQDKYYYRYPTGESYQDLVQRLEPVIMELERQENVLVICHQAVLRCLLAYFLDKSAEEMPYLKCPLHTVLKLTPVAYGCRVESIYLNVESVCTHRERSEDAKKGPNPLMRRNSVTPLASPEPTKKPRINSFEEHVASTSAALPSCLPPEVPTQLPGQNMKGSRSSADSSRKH

Row | SMILES | IC50 [1] | IC50 [2]
1 | Cc1nc(NC(C)c2cccc(-c3cnn(C)c3)c2)cc(-c2ccccc2C)n1 (configuration not stated) | > 1000 nM | > 1000 nM
2 | Cc1nc(NCC2CCCNC2)cc(-c2ccc3ncsc3c2)n1 (configuration not stated) | > 1000 nM | > 1000 nM
3 | Cc1nc(NC(C)c2cccc(-c3cnn(C)c3)c2)cc(-c2ccc(C(F)(F)F)cc2)n1 (configuration not stated) | > 1000 nM | > 1000 nM
4 | Cc1nc(N[C@@H]2CCCc3ccccc32)cc(-c2cc3ccccc3[nH]2)n1 | > 1000 nM | > 1000 nM
5 | Cc1cc(COc2ccc(F)c(C(C)Nc3cc(-c4ccc5ncsc5c4)nc(C)n3)c2)n(C)n1 (configuration not stated) | > 1000 nM | > 1000 nM
6 | Cc1nc(NCc2cc(O)ccc2F)cc(-c2ccc3ncsc3c2)n1 | 500 nM | 500 nM
7 | Cc1nc(NC(C)c2ccccc2C)cc(-c2ccc3occ(C)c3c2)n1 (configuration not stated) | > 1000 nM | > 1000 nM
8 | Cc1nc(N[C@@H]2CCOc3ccccc32)cc(-c2ccc3ncsc3c2)n1 | > 1000 nM | > 1000 nM
9 | CCN(CC)C(=O)COc1cccc(C(C)Nc2cc(-c3ccc4c(c3)N(C)CCO4)nc(C)n2)c1 (configuration not stated) | > 1000 nM | 
10 | COc1cccc([C@H](C)Nc2cc(-c3cc4ccccc4n3C)nc(C)n2)c1 | 500 nM | 500 nM
11 | Cc1nc(NC(C)c2ccc(Cl)c(O)c2)cc(-c2ccc3occ(C)c3c2)n1 (configuration not stated) | 500 nM | > 1000 nM
12 | Cc1nc(N[C@@H]2CCCc3ccccc32)cc(-c2cnc3ccccc3c2)n1 | > 1000 nM | 500 nM
13 | Cc1nc(N[C@@H]2CCCc3ccccc32)cc(-c2ccc3cnn(C)c3c2)n1 | 500 nM | 500 nM
14 | CCN(CC)C(=O)COc1cccc(C(C)Nc2cc(-c3cccc(OC)c3F)nc(C)n2)c1 (configuration not stated) | > 1000 nM | > 1000 nM
15 | Cc1nc(NC(C)c2cccc(OCC(N)=O)c2)cc(-c2cc3ccccc3n2C)n1 (configuration not stated) | 500 nM | 
16 | CCN(CC)C(=O)COc1cccc(C(C)Nc2cc(-c3ccc4ccccc4c3)nc(C)n2)c1 (configuration not stated) | 500 nM | 
17 | COC(=O)COc1ccc(F)c(CNc2cc(-c3ccc4ncsc4c3)nc(C)n2)c1 | > 1000 nM | > 1000 nM
18 | COc1cccc([C@H](C)Nc2cc(-c3cnc4ccn(C)c4c3)nc(C)n2)c1 | > 1000 nM | > 1000 nM
19 | Cc1nc(NC(C)c2cccc(OCCN(C)C)c2)cc(-c2ccc3occ(C)c3c2)n1 (configuration not stated) | > 1000 nM | 
20 | Cc1cc(-c2cc(N[C@@H]3CCCc4ccccc43)nc(C)n2)ccn1 | > 1000 nM | > 1000 nM
21 | COc1cccc([C@H](C)Nc2cc(-c3ccc4c(c3)CCO4)nc(C)n2)c1 | 500 nM | 500 nM
22 | Cc1nc(NC(C)c2cccc(OCC3CCCN(C(=O)OC(C)(C)C)C3)c2)cc(-c2ccc3occ(C)c3c2)n1 (configuration not stated) | 500 nM | > 1000 nM
23 | Cc1nc(NCC2CCCN(C(=O)C3CCC3)C2)cc(-c2ccc3ncsc3c2)n1 (configuration not stated) | > 1000 nM | 
24 | COc1ccc(Br)c(CNc2cc(-c3ccc4ncsc4c3)nc(C)n2)c1 | 500 nM | > 1000 nM
25 | Cc1nc(NC(C)c2ccc(F)c(Br)c2)cc(-c2ccc3occ(C)c3c2)n1 (configuration not stated) | 500 nM | > 1000 nM

Row | SMILES | IC50 [1] | IC50 [2]
26 | Cc1nc(NCC2CCCN(C(=O)CN(C)C(=O)c3ccccc3)C2)cc(-c2ccc3ncsc3c2)n1 (configuration not stated) | > 1000 nM | 
27 | COc1cccc(-c2cc(NC(C)c3cccc(O)c3)nc(C)n2)c1F (configuration not stated) | > 1000 nM | > 1000 nM
28 | CC(=O)N1CCN(CCOc2cccc(C(C)Nc3cc(-c4ccc5ncsc5c4)nc(C)n3)c2)CC1 (configuration not stated) | 500 nM | 
29 | COc1cccc([C@H](C)Nc2cc(-c3cc4ccccc4o3)nc(C)n2)c1 | > 1000 nM | > 1000 nM
30 | Cc1nc(N[C@H](C)c2ccnc(-c3cnn(C)c3)c2)cc(-c2ccc3occ(C)c3c2)n1 | > 1000 nM | 
31 | Cc1nc(N[C@@H]2CCCc3ccccc32)cc(-c2ccc3ncccc3c2)n1 | > 1000 nM | 
32 | Cc1nc(NC(C)c2cccc(-c3cnn(C)c3)c2)cc(-c2ccc3ccccc3c2)n1 (configuration not stated) | > 1000 nM | 
33 | Cc1nc(NC(C)c2cccc(-c3cnn(C)c3)c2)cc(-c2ccc(F)c(Cl)c2)n1 (configuration not stated) | > 1000 nM | 
34 | Cc1nc(N[C@H](C)c2cccc(-c3cnn(C)c3)c2)cc(-c2cccc(F)c2)n1 | > 1000 nM | 
35 | COc1cccc(Oc2cc(N[C@@H]3CCCc4ccccc43)nc(C)n2)c1 | > 1000 nM | 
36 | COc1ccc(-c2cc(NC(C)c3cccc(-c4cnn(C)c4)c3)nc(C)n2)c(F)c1 (configuration not stated) | > 1000 nM | 
37 | COc1cccc([C@H](C)Nc2cc(-c3ccc4ncccc4c3)nc(C)n2)c1 | > 1000 nM | 
38 | Cc1nc(NC(C)c2cccc(-c3cnn(C)c3)c2)cc(-c2cc(F)c(F)c(F)c2)n1 (configuration not stated) | 500 nM | 
39 | Cc1nc(NCC2CCCN(C(=O)c3ccc[nH]3)C2)cc(-c2ccc3ncsc3c2)n1 (configuration not stated) | > 1000 nM | 
40 | Cc1nc(N[C@@H]2CCCc3ccccc32)cc(-c2ccc3c(c2)C(=O)C=CC3)n1 | 500 nM | 
41 | Cc1nc(N[C@@H]2CCCc3ccccc32)cc(-c2ccc3nonc3c2)n1 | > 1000 nM | 
42 | Cc1nc(NC(C)c2cccc(NC(=O)CN(C)C(=O)OC(C)(C)C)c2)cc(-c2ccc3ncsc3c2)n1 (configuration not stated) | > 1000 nM | 
43 | Cc1nc(N[C@@H]2CCCc3ccccc32)cc(-c2ccc(Cl)c(COC(C)C(=O)O)c2)n1 (some centres not stated) | 500 nM | 
44 | Cc1nc(NC(C)c2cccc(-c3cnn(C)c3)c2)cc(-c2cccc(N(C)C)c2)n1 (configuration not stated) | > 1000 nM | 
45 | Cc1nc(NC(C)c2cccc(-c3cnn(C)c3)c2)cc(-c2ccc(F)c(F)c2)n1 (configuration not stated) | 500 nM | 
46 | COc1cccc([C@H](C)Nc2cc(-c3ccc(C)c(N)c3)nc(C)n2)c1 | > 1000 nM | 
47 | Cc1nc(NCC2CCCN(C(=O)C3CCCCC3)C2)cc(-c2ccc3ncsc3c2)n1 (configuration not stated) | > 1000 nM | 
48 | Cc1nc(N[C@@H]2CCCc3ccccc32)cc(-c2ccc3nccnc3c2)n1 | > 1000 nM | 
49 | Cc1nc(NCc2cc(OCC(=O)N3CCOCC3)ccc2F)cc(-c2ccc3ncsc3c2)n1 | > 1000 nM | 

Results, then the compound that gave them:

Row | IC50 [1] | IC50 [2] | SMILES
50 | > 1000 nM | > 1000 nM | Cc1nc(NC(C)c2cccc(OCCS(C)(=O)=O)c2)cc(-c2ccc3ncsc3c2)n1 (configuration not stated)
51 | > 1000 nM | > 1000 nM | Cc1nc(NC(C)c2cccc(-c3cccc(F)c3)c2)cc(-c2ccc3ncsc3c2)n1 (configuration not stated)
52 | 500 nM | > 1000 nM | Cc1nc(NC(C)c2cccc(OCCn3cccn3)c2)cc(-c2ccc3ncsc3c2)n1 (configuration not stated)
53 | > 1000 nM | > 1000 nM | Cc1nc(NC(C)c2cccc(OCC(=O)Nc3ccccc3)c2)cc(-c2ccc3ncsc3c2)n1 (configuration not stated)
54 | 500 nM | > 1000 nM | Cc1nc(NC(C)c2cccc(-c3ccc[nH]3)c2)cc(-c2ccc3ncsc3c2)n1 (configuration not stated)
55 | 500 nM |  | COc1cc(C(C)Nc2cc(-c3ccc4ncsc4c3)nc(C)n2)ccn1 (configuration not stated)
56 | > 1000 nM | 500 nM | Cc1nc(NC(C)c2cccc(OCC(=O)NCC(C)O)c2)cc(-c2ccc3ncsc3c2)n1 (configuration not stated)
57 | 500 nM | > 1000 nM | Cc1nc(NC(C)c2cccc(-c3cccnc3F)c2)cc(-c2ccc3ncsc3c2)n1 (configuration not stated)
58 | 500 nM | > 1000 nM | Cc1nc(NC(C)c2cccc(NC(=O)NC(N)=O)c2)cc(-c2ccc3ncsc3c2)n1 (configuration not stated)
59 | 500 nM | 500 nM | Cc1cc(-c2cccc(C(C)Nc3cc(-c4ccc5ncsc5c4)nc(C)n3)c2)ccn1 (configuration not stated)
60 | 500 nM |  | Cc1nc(NC(C)c2cccc(OCC#N)c2)cc(-c2ccc3ncsc3c2)n1 (configuration not stated)
61 | 500 nM |  | Cc1nc(NC(C)c2cccc(OCCN(C)C)c2)cc(-c2ccc3ncsc3c2)n1 (configuration not stated)
62 | 500 nM | > 1000 nM | CCOC(=O)c1cncc(-c2cccc(C(C)Nc3cc(-c4ccc5ncsc5c4)nc(C)n3)c2)c1 (configuration not stated)
63 | 500 nM | > 1000 nM | Cc1nc(NC(C)c2ccc(F)c(-c3cnn(C)c3)c2)cc(-c2ccc3ncsc3c2)n1 (configuration not stated)
64 | > 1000 nM |  | Cc1nc(NC(C)c2cccc(OCC(=O)N3CCC3)c2)cc(-c2ccc3ncsc3c2)n1 (configuration not stated)
65 | 500 nM |  | Cc1nc(NC(C)c2cccc(OCC(=O)N3CC3C)c2)cc(-c2ccc3ncsc3c2)n1 (configuration not stated)
66 | > 1000 nM | > 1000 nM | COC(=O)c1coc(COc2cccc(C(C)Nc3cc(-c4ccc5ncsc5c4)nc(C)n3)c2)n1 (configuration not stated)
67 | > 1000 nM |  | Cc1nc(NC(C)c2cccc(-c3ccnc(N)n3)c2)cc(-c2ccc3ncsc3c2)n1 (configuration not stated)
68 | > 1000 nM | > 1000 nM | COCCNS(=O)(=O)c1cccc(C(C)Nc2cc(-c3ccc4ncsc4c3)nc(C)n2)c1 (configuration not stated)

Row | IC50 [1] | IC50 [2] | SMILES
69 | > 1000 nM |  | Cc1nc(NC(C)c2cccc(OCC(=O)N3CCCC3)c2)cc(-c2ccc3ncsc3c2)n1 (configuration not stated)
70 | 500 nM | 500 nM | C#CCOc1cccc(C(C)Nc2cc(-c3ccc4ncsc4c3)nc(C)n2)c1 (configuration not stated)
71 | > 1000 nM | > 1000 nM | Cc1nc(NC(C)c2cccc(-c3ccsc3)c2)cc(-c2ccc3ncsc3c2)n1 (configuration not stated)
72 | > 1000 nM |  | Cc1nc(NC(C)c2cccc(-c3nn[nH]n3)c2)cc(-c2ccc3ncsc3c2)n1 (configuration not stated)
73 | > 1000 nM | 500 nM | Cc1nc(NC(C)c2cccc(OCc3nc(C(=O)O)co3)c2)cc(-c2ccc3ncsc3c2)n1 (configuration not stated)
74 | 500 nM | 500 nM | Cc1nc(NC(C)c2cccc(OCC3CCNCC3)c2)cc(-c2ccc3ncsc3c2)n1 (configuration not stated)
75 | > 1000 nM | > 1000 nM | Cc1nc(NC(C)c2cccc(NC(N)=O)c2)cc(-c2ccc3ncsc3c2)n1 (configuration not stated)
76 | 500 nM | > 1000 nM | Cc1nc(NC(C)c2cccc(NC(=O)c3ccn[nH]3)c2)cc(-c2ccc3ncsc3c2)n1 (configuration not stated)
77 | 500 nM |  | Cc1nc(NC(C)c2cccc(OCC(=O)NC3CC3)c2)cc(-c2ccc3ncsc3c2)n1 (configuration not stated)
78 | > 1000 nM |  | Cc1nc(N[C@H](C)c2cccc(-c3cnn(C)c3)c2)cc(-c2ccc3ncsc3c2)n1
79 | > 1000 nM |  | Cc1nc(NC(C)c2cccc(/C(N)=N/O)c2)cc(-c2ccc3ncsc3c2)n1 (configuration not stated)
80 | 500 nM |  | CCN(CC)c1ncc(-c2cccc([C@H](C)Nc3cc(-c4ccc5ncsc5c4)nc(C)n3)c2)cn1
81 | 500 nM |  | COCCNC(=O)COc1cccc(C(C)Nc2cc(-c3ccc4ncsc4c3)nc(C)n2)c1 (configuration not stated)
82 | 500 nM |  | Cc1nc(NC(C)c2cccc(S(N)(=O)=O)c2)cc(-c2ccc3ncsc3c2)n1 (configuration not stated)
83 | 500 nM |  | Cc1nc(NC(C)c2cccc(-c3cnn(CC(=O)O)c3)c2)cc(-c2ccc3ncsc3c2)n1 (configuration not stated)
84 | > 1000 nM |  | Cc1nc(NC(C)c2cc(O)ccc2F)cc(-c2ccc3ncsc3c2)n1 (configuration not stated)
85 | > 1000 nM |  | Cc1nc(NC(C)c2cccc(OCC[C@H](O)c3ccccc3)c2)cc(-c2ccc3ncsc3c2)n1 (some centres not stated)
86 | > 1000 nM |  | Cc1nc(NC(C)c2cccc(OCC(=O)O)c2)cc(-c2ccc3ncsc3c2)n1 (configuration not stated)
